# Measurements published in ChEMBL document CHEMBL1149462, “Total synthesis and biological evaluation of 22-hydroxyacuminatine” (J Med Chem, 2006).
# Tests used:
# [1] = tested on: P388; assay: Cytotoxicity against P388 murine leukemic cell line; assay type: functional, cell-based; settings: Mus musculus
# [2] = tested on: P388CPT45; assay: Cytotoxicity against topoisomerase 1-deficient subclone P388/CPT45 murine leukemic cell line; assay type: functional, cell-based; settings: Mus musculus
compound,measurement,setting,value
O=c1c2cccc(CO)c2cc2n1Cc1cc3ccccc3nc1-2,IC50,[1],35.5 µM
same,IC50,[2],43 µM
